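A five-concentration, 48-hour dose response in 96-well plates underlies each endpoint, interpolated linearly between surrounding concentrations. GI50 = concentration required for 50% inhibition of growth. TGI marks complete inhibition of growth.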
Key:
Assay in all cases: NCI-60 cell line screen, 48 h
[1] = system: KM20L2 colon
[2] = system: RXF 393 renal
[3] = system: SNB-75 CNS
[4] = system: U251 CNS
[5] = system: HT29 colon
[6] = system: M19-MEL melanoma
[7] = system: OVCAR-8 ovarian
[8] = system: SF-268 CNS
[9] = system: SN12C renal
[10] = system: SW-620 colon
[11] = system: NCI-H460 lung
[12] = system: XF 498 CNS
[13] = system: UACC-62 melanoma
[14] = system: SK-OV-3 ovarian
[15] = system: TK-10 renal
[16] = system: DMS 273 small cell lung
[17] = system: MOLT-4 leukemia
[18] = system: MALME-3M melanoma
[19] = system: OVCAR-3 ovarian
[20] = system: M14 melanoma
[21] = system: 786-0 renal
[22] = system: HOP-62 NSCLC
[23] = system: CAKI-1 renal
[24] = system: A549 NSCLC
[25] = system: IGROV1 ovarian
[26] = system: DLD-1 colon
[27] = system: ACHN renal
[28] = system: CCRF-CEM leukemia
[29] = system: COLO 205 colon
[30] = system: SK-MEL-28 melanoma
[31] = system: HCT-15 colon
[32] = system: SNB-78 CNS
[33] = system: LOX IMVI melanoma
[34] = system: HL-60(TB) leukemia
[35] = system: HCC-2998 colon
[36] = system: LXFL 529 NSCLC
[37] = system: HOP-18 NSCLC
[38] = system: SNB-19 CNS
[39] = system: OVCAR-4 ovarian
[40] = system: K-562 leukemia
[41] = system: NCI-H23 lung
[42] = system: DMS 114 small cell lung
[43] = system: EKVX NSCLC
[44] = system: UO-31 renal
[45] = system: SF-295 CNS
[46] = system: SK-MEL-5 melanoma
[47] = system: A498 renal
[48] = system: SK-MEL-2 melanoma
[49] = system: UACC-257 melanoma
[50] = system: HOP-92 NSCLC
[51] = system: SF-539 CNS
[52] = system: SR leukemia
[53] = system: NCI-H226 lung
[54] = system: RPMI-8226 leukemia
[55] = system: OVCAR-5 ovarian
[56] = system: KM12 colon
[57] = system: NCI-H522 lung
[58] = system: HCT-116 colon

## CC(=O)O[C@H]1CC2C=CC3C(CCC31)O2 (stereo partly drawn)
[1]
  TGI: > 100 µM
[2]
  TGI: > 100 µM
[3]
  TGI: > 100 µM
[4]
  TGI: > 100 µM
[5]
  TGI: > 100 µM
[6]
  TGI: > 100 µM
[7]
  TGI: > 100 µM
[8]
  TGI: > 100 µM
[9]
  TGI: > 100 µM
[10]
  TGI: > 100 µM
[11]
  TGI: > 100 µM
[12]
  TGI: > 100 µM
[13]
  TGI: > 100 µM
[14]
  TGI: > 100 µM
[15]
  TGI: > 100 µM
[16]
  TGI: > 100 µM
[17]
  TGI: > 100 µM
[18]
  TGI: > 100 µM
[19]
  TGI: > 100 µM
[20]
  TGI: > 100 µM
[21]
  TGI: > 100 µM
[22]
  TGI: > 100 µM
[23]
  TGI: > 100 µM
[24]
  TGI: > 100 µM
[25]
  TGI: > 100 µM
[26]
  TGI: > 100 µM
[27]
  TGI: > 100 µM
[28]
  TGI: > 100 µM
[29]
  TGI: > 100 µM
[30]
  TGI: > 100 µM
[31]
  TGI: > 100 µM
[32]
  TGI: > 100 µM
[33]
  TGI: > 100 µM
[34]
  TGI: > 100 µM
[35]
  TGI: > 100 µM
[36]
  TGI: > 100 µM
[37]
  TGI: > 100 µM
[38]
  TGI: > 100 µM
[39]
  TGI: > 100 µM
[40]
  TGI: > 100 µM
[41]
  TGI: > 100 µM
[42]
  TGI: > 100 µM
[43]
  TGI: > 100 µM
[44]
  TGI: > 100 µM

## C=C1Cc2cc(OC)c(OC)c(OC)c2-c2ccc(SC)c(=O)cc21
[2]
  TGI: 10.4 µM
[3]
  TGI: 15.1 µM
[45]
  TGI: 4.12 µM
[46]
  TGI: 13.3 µM
[5]
  TGI: < 0.01 µM
[6]
  TGI: 2.42 µM
[8]
  TGI: 1.42 µM
[9]
  TGI: 1.6 µM
[10]
  TGI: 4 µM
[47]
  TGI: 0.421 µM
[11]
  TGI: < 0.035 µM
[48]
  TGI: < 0.01 µM
[14]
  TGI: 5.15 µM
[15]
  TGI: 6.83 µM
[17]
  TGI: 25.2 µM
[18]
  TGI: 2.57 µM
[19]
  TGI: < 0.01 µM
[21]
  TGI: 1.8 µM
[22]
  TGI: 7.8 µM
[23]
  TGI: 6.01 µM
[24]
  TGI: 19.5 µM
[25]
  TGI: 7.66 µM
[49]
  TGI: 7.62 µM
[50]
  TGI: 3.7 µM
[51]
  TGI: < 0.01 µM
[26]
  TGI: 3.7 µM
[27]
  TGI: 6.2 µM
[28]
  TGI: 6.85 µM
[29]
  TGI: < 0.0318 µM
[30]
  TGI: 7.88 µM
[52]
  TGI: > 100 µM
[31]
  TGI: 1.17 µM
[32]
  TGI: 49.4 µM
[33]
  TGI: 0.343 µM
[35]
  TGI: 0.402 µM
[53]
  TGI: 188 nM
[36]
  TGI: 1.81 µM
[37]
  TGI: 11.9 µM
[54]
  TGI: 14.7 µM
[38]
  TGI: 5.3 µM
[55]
  TGI: 12.6 µM
[56]
  TGI: < 0.01 µM
[39]
  TGI: 18.9 µM
[40]
  TGI: > 34.8 µM
[41]
  TGI: 2.11 µM
[42]
  TGI: < 0.0279 µM
[43]
  TGI: 18.8 µM
[57]
  TGI: < 0.01 µM
[44]
  TGI: 6.96 µM

## COC(=O)C1(C)NCCc2c1[nH]c1ccccc21 (stereo not drawn)
[1]
  TGI: > 100 µM
[2]
  TGI: > 100 µM
[3]
  TGI: > 100 µM
[45]
  TGI: > 100 µM
[46]
  TGI: > 100 µM
[4]
  TGI: > 100 µM
[5]
  TGI: > 100 µM
[6]
  TGI: > 100 µM
[7]
  TGI: > 100 µM
[8]
  TGI: > 100 µM
[9]
  TGI: > 100 µM
[10]
  TGI: > 100 µM
[47]
  TGI: > 100 µM
[48]
  TGI: > 100 µM
[13]
  TGI: > 100 µM
[14]
  TGI: > 100 µM
[15]
  TGI: > 100 µM
[17]
  TGI: > 100 µM
[18]
  TGI: > 100 µM
[19]
  TGI: > 100 µM
[20]
  TGI: > 100 µM
[21]
  TGI: > 100 µM
[22]
  TGI: > 100 µM
[23]
  TGI: > 100 µM
[24]
  TGI: > 100 µM
[25]
  TGI: > 100 µM
[58]
  TGI: > 100 µM
[50]
  TGI: > 100 µM
[51]
  TGI: > 100 µM
[26]
  TGI: > 100 µM
[28]
  TGI: > 100 µM
[29]
  TGI: > 100 µM
[30]
  TGI: > 100 µM
[52]
  TGI: > 100 µM
[31]
  TGI: > 100 µM
[35]
  TGI: > 100 µM
[36]
  TGI: > 100 µM
[54]
  TGI: > 100 µM
[38]
  TGI: > 100 µM
[55]
  TGI: > 100 µM
[56]
  TGI: > 100 µM
[39]
  TGI: > 100 µM
[40]
  TGI: > 100 µM
[41]
  TGI: > 100 µM
[42]
  TGI: > 100 µM
[43]
  TGI: > 100 µM
[57]
  TGI: > 100 µM
[44]
  TGI: > 100 µM

## O=c1c([OH2+])c(-c2ccc(O)cc2[O-])oc2cc(O)cc([O-])c12.O=c1c([OH2+])c(-c2ccc(O)cc2[O-])oc2cc(O)cc([O-])c12.[Ti+4]
[1]
  GI50: > 100 µM
  TGI: > 100 µM
[2]
  GI50: > 100 µM
  TGI: > 100 µM
[3]
  TGI: > 100 µM
[45]
  TGI: > 100 µM
[46]
  TGI: > 100 µM
[5]
  TGI: > 100 µM
[6]
  GI50: > 100 µM
  TGI: > 100 µM
[7]
  TGI: > 100 µM
[8]
  TGI: > 100 µM
[9]
  TGI: > 100 µM
[10]
  TGI: > 100 µM
[47]
  GI50: > 100 µM
  TGI: > 100 µM
[11]
  TGI: > 100 µM
[48]
  TGI: > 100 µM
[13]
  GI50: > 100 µM
  TGI: > 100 µM
[14]
  GI50: > 100 µM
  TGI: > 100 µM
[15]
  TGI: > 100 µM
[16]
  GI50: > 100 µM
  TGI: > 100 µM
[17]
  GI50: > 100 µM
  TGI: > 100 µM
[18]
  TGI: > 100 µM
[19]
  TGI: > 100 µM
[20]
  TGI: > 100 µM
[21]
  TGI: > 100 µM
[22]
  TGI: > 100 µM
[23]
  TGI: > 100 µM
[24]
  TGI: > 100 µM
[25]
  TGI: > 100 µM
[49]
  TGI: > 100 µM
[58]
  TGI: > 100 µM
[51]
  TGI: > 100 µM
[26]
  GI50: > 100 µM
  TGI: > 100 µM
[27]
  TGI: > 100 µM
[28]
  TGI: > 100 µM
[29]
  TGI: > 100 µM
[30]
  TGI: > 100 µM
[31]
  TGI: > 100 µM
[32]
  GI50: > 100 µM
  TGI: > 100 µM
[33]
  TGI: > 100 µM
[34]
  TGI: > 100 µM
[53]
  TGI: > 100000 nM
[36]
  GI50: > 100 µM
  TGI: > 100 µM
[37]
  GI50: > 100 µM
  TGI: > 100 µM
[54]
  GI50: > 100 µM
  TGI: > 100 µM
[38]
  TGI: > 100 µM
[55]
  TGI: > 100 µM
[56]
  TGI: > 100 µM
[39]
  TGI: > 100 µM
[40]
  TGI: > 100 µM
[41]
  TGI: > 100 µM
[42]
  GI50: > 100 µM
  TGI: > 100 µM
[43]
  TGI: > 100 µM
[57]
  TGI: > 100 µM
[44]
  TGI: > 100 µM

From PubChem BioAssay (NCI)
